Legend:
[1] = tested on: rats following MI injury; assay: Infarct size after TTC staining in rats following MI injury; assay type: in vivo, SD rats; settings: 50 mg/Kg/day intraperitoneal, 7 days before and 2 days after ligation, 48 h after surgery, saline 36.0±1.3%
Method: SPRC and SAC were dissolved in saline (vehicle). Male SD rats (weight 200-250 g) were randomly assigned to […] treatment groups: group (1) Sham group: Sham-treated with saline (n=4), (2) Sham+SPRC group: Sham-treated with SPRC (50 mg/Kg/day) (n=4), (3) Sham+SAC group: Sham-treated with SAC (50 mg/Kg/day) (n=4), (4) MI group: MI treated with saline (n=8), (5) MI+SPRC group: MI treated with SPRC (50 mg/Kg/day) (n=8), (6) MI+SAC group: MI treated with SAC (50 mg/Kg/day) (n=8). Rats were pre-treated for seven days with each SAC analogues respectively via an intraperitoneal injection once daily before they were used for MI model studies. […] Briefly, the rats were anesthetized with 7% choral hydrate (60 mg/kg intraperitoneal injection), endotracheally intubated and mechanically ventilated with room air, respiratory rate 100 breaths/min, tidal volume 2.5 ml with a rodent ventilator (DHX-150, China). ECG was recorded in the anaesthetized animal for a period of one minute using the Animal Mflab200 amplifier (Produced in China). A left thoracotomy was performed and the third intercostal space was exposed. […] Then incisions were sutured and the chests were closed. […] Forty eight hours after the surgery, ECG was recorded for each rat in each group. […] To evaluate the effect of SPRC and SAC on MI, infarct size were measured after TTC staining (FIG. 12).

[2] = tested on: Bcl-2; assay: Western blot of Bcl-2 protein in left ventricle; assay type: in vivo, SD rats; settings: MI rats, 50 mg/Kg/day, p<0.01
Text: (§1) Animals were assigned and prepared the same as in Example 7, and dosages of SPRC and SAC were used the same in this example as in Example 7.

[3] = tested on: Bax; assay: Western blot of Bax protein in left ventricle; assay type: in vivo, SD rats; settings: MI rats, 50 mg/Kg/day, p<0.01
Text: as §1

[4] = tested on: rats following MI injury; assay: SOD activity in plasma of rats (sham or MI); assay type: in vivo, SD rats; settings: 50 mg/Kg/day intraperitoneal
Method: as §1
(§2) Serum CK levels were detected with diagnostic kit (NJBI, China) according to the instructions. LDH were determined calorimetrically with a spectrophotometer. Lipid peroxidation was measured in terms of MDA content using the thiobarbituric acid (TBA) assay. […] With regard to lipid peroxidation, the levels of MDA in MI groups increased at 48 h after myocardial infarction. […] (FIG. 14)

[5] = molecular target: T1, CSE (Rattus norvegicus, UniProt P18757); assay: Left ventricular CSE activity in tissue homogenates of rats; assay type: in vivo, SD rats; settings: 50 mg/Kg/day; for CSE activity: left ventricle
T1 construct: from tissue; host or cells: rat left ventricle (homogenate), myocardial infarction model
Method: as §1
(§3) The plasma levels of H2S in each treatment group were determined since CSE mediates the endogenous production of H2S in mammals. Plasma H2S concentrations in MI group rats at 48 h after MI induction were 34.7±5.6 μM (n=8). […] Left ventricular CSE activity was analyzed in the tissue homogenates from each treatment group (n=6). CSE activity was 1.58±0.15 μmol/g protein/hr in left the ventricular tissues in MI group and 2.19±0.32 μmol/g protein/hr in the MI+SAC treated rats.
SPRC administered rats had the highest CSE activity of 2.58±0.07 μmol/g protein/hr (p<0.01) (FIG. 15B). This observation correlated with the observed increases in H2S concentrations in the same treatment groups.

[6] = tested on: rats following MI injury; assay: MDA content (TBA assay) in rats (sham or MI); assay type: in vivo, SD rats; settings: Sham rats; 50 mg/Kg/day intraperitoneal
Method: as §1, §2

[7] = tested on: Bcl-2 mRNA; assay: RT-PCR of Bcl-2 mRNA in left ventricle; assay type: in vivo, SD rats; settings: MI rats, 50 mg/Kg/day, p>0.05
Text: as §1
(§4) To further verify the effects of SPRC and SAC, the expressions of Bcl-2, Bax and CSE mRNA were accessed by RT-PCR (FIG. 17). An isoform of the CSE gene was detected (GenBank; access no. AY641456). The relative amounts of CSE mRNA in Left ventricular subjected to MI were increase 3.3-fold and 1.5-fold following SPRC and SAC exposure as compared to the MI group.

[8] = tested on: H9c2 cells; assay: Endogenous H2S level in H2O2 injured H9c2 cells; assay type: cell-based; settings: SPRC treatments
Text: (§5) Similar experiments are done on cultured H9c2 cardiac muscle cells groups with the same experiment condition and different dosages of SPRC treatments. The results of the experiments confirm that endogenous H2S level in H2O2 injured H9c2 cells is elevated by SPRC treatments. […] It is also observed that the apoptosis of hypoxic myocardial cells is decreased, the survival rate of the in H2O2 injured H9c2 cells is increased and the LDH releasing from the in H2O2 injured H9c2 cells are reduced by three dosages of SPRC treatment.

[9] = tested on: rats following MI injury; assay: Serum LDH in rats (sham or MI); assay type: in vivo, SD rats; settings: Sham rats; 50 mg/Kg/day intraperitoneal
Method: as §1, §2

[10] = tested on: H9c2 cells; assay: Catalase activity in H2O2 injured H9c2 cells; assay type: cell-based; settings: SPRC treatments
Text: as §5

[11] = tested on: rats following MI injury; assay: Serum CK in rats (sham or MI); assay type: in vivo, SD rats; settings: Sham rats; 50 mg/Kg/day intraperitoneal
Method: as §1, §2

[12] = tested on: CSE mRNA; assay: RT-PCR of CSE mRNA in left ventricle; assay type: in vivo, SD rats; settings: MI rats, 50 mg/Kg/day
Text: as §1, §4

[13] = tested on: rats following MI injury; assay: Plasma H2S levels in rats (sham or MI); assay type: in vivo, SD rats; settings: 50 mg/Kg/day intraperitoneal
Method: as §1, §3

[14] = tested on: Bax mRNA; assay: RT-PCR of Bax mRNA in left ventricle; assay type: in vivo, SD rats; settings: MI rats, 50 mg/Kg/day, p<0.05
Text: as §1, §4

T1 sequence (P18757 whole entry): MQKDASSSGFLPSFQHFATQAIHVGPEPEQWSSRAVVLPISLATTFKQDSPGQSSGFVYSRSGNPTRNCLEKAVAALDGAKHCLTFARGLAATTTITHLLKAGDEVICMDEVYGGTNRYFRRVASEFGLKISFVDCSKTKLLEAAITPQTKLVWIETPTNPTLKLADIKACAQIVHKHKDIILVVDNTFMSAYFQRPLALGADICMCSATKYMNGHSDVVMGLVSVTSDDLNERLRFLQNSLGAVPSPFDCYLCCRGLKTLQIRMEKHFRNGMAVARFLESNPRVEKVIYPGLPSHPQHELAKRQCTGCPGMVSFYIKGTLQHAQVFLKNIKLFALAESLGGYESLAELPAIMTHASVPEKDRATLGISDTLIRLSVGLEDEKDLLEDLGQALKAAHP

CSE activity ([5]; MI rats): 2.58 ± 0.07 μM/mgprot
Left ventricular CSE activity ([5]; MI rats, left ventricular tissue homogenates, MI group 1.58±0.15): 2.58±0.07 μmol/g protein/hr
CSE activity ([5]; Sham rats): 2.41 ± 0.12 μM/mgprot
SMILES: C#CCSC[C@H](N)C(=O)O [SPRC, S-propargyl-cysteine]
infarct size/total area of myocardium [1]: 20.8±2.4%
Bcl-2 protein expression [2]: up-regulated
Bax protein levels [3]: down-regulated
SOD ([4]; MI rats, 48 h after MI): 113.8 ± 1.5 U/ml
SOD ([4]; Sham rats): 161.2 ± 3.8 U/ml
MDA [6]: 3.79 ± 0.40 nmol/mL
Bcl-2 gene expression [7]: no significant differences
endogenous H2S level [8]: elevated
LDH [9]: 2612 ± 189 U/L
catalase activity [10]: elevated
CK [11]: 0.251 ± 0.032 U/ml
relative amounts of CSE mRNA, increase as compared to the MI group [12]: 3.3 fold
H2S concentration in plasma ([13]; MI rats, 48 h after MI induction, 50 mg/kg/day): 91.6 ± 7.6 µM
H2S concentration in plasma ([13]; Sham rats): 67.2 ± 6.4 µM
Bax gene expression [14]: down regulated
